Measurements taken from the supplement of paper PMC6045584.
± gives the standard deviation of the averaged measurements.

Legend:
[1] = compound: CCN(CC)CCCCNc1ncc2cc(-c3cc(OC)cc(OC)c3)c(NC(=O)NC(C)(C)C)nc2n1; test: surviving fraction relative to DMSO-only wells; higher = less growth inhibition; settings: exposure time: 5 days
Method in brief: (§1)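 Log-phase tumour cell lines were seeded at 250–500 cells per well in 384-well plates. After 24 hours they were exposed continuously for five days to inhibitors at 0.5, 1, 5, 10, 50, 100, 500 and 1000 nM. Viability was read by CellTiter-Glo luminescence after 10 minutes at room temperature, and surviving fraction is luminescence normalised to the median of DMSO-only wells. Each line was screened three times and kept only if replicate Pearson r >0.7 and median Z' >0.3.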

VISMODEGIB = compound: CS(=O)(=O)c1ccc(C(=O)Nc2ccc(Cl)c(-c3ccccn3)c2)c(Cl)c1 [VISMODEGIB]; test: as above; settings: exposure time: 5 days
Method in brief: as §1

Test System | surviving fraction ([1]; 0.5 nM) | surviving fraction ([1]; 1 nM) | surviving fraction ([1]; 5 nM) | surviving fraction ([1]; 10 nM) | surviving fraction ([1]; 50 nM) | surviving fraction ([1]; 100 nM) | surviving fraction ([1]; 500 nM) | surviving fraction ([1]; 1000 nM) | surviving fraction (VISMODEGIB; 0.5 nM) | surviving fraction (VISMODEGIB; 1 nM) | surviving fraction (VISMODEGIB; 5 nM) | surviving fraction (VISMODEGIB; 10 nM) | surviving fraction (VISMODEGIB; 50 nM) | surviving fraction (VISMODEGIB; 100 nM) | surviving fraction (VISMODEGIB; 500 nM) | surviving fraction (VISMODEGIB; 1000 nM)
JURKAT HAEMATOPOIETIC AND LYMPHOID TISSUE | 1.03 ± 0.042 | 1.08 ± 0.015 | 1.04 ± 0.022 | 1.055 ± 0.0052 | 1 ± 0.039 | 1.05 ± 0.02 | 1.02 ± 0.021 | 1.07 ± 0.021 | 1.09 ± 0.0025 | 1.09 ± 0.017 | 1.06 ± 0.017 | 1.1 ± 0.019 | 0.99 ± 0.016 | 1.04 ± 0.026 | 1.02 ± 0.032 | 1.05 ± 0.017
KPD BONE | 0.978 ± 0.07 | 1.02 ± 0.033 | 1 ± 0.049 | 1.01 ± 0.12 | 1.02 ± 0.039 | 0.97 ± 0.058 | 0.925 ± 0.025 | 0.884 ± 0.058 | 0.899 ± 0.045 | 0.946 ± 0.088 | 1.05 ± 0.078 | 1.01 ± 0.017 | 0.956 ± 0.012 | 1.05 ± 0.073 | 0.98 ± 0.039 | 0.933 ± 0.07
LM7 BONE | 0.989 ± 0.039 | 0.966 ± 0.075 | 1.08 ± 0.13 | 1.07 ± 0.069 | 1.01 ± 0.043 | 1.13 ± 0.24 | 0.869 ± 0.075 | 0.739 ± 0.11 | 0.92 ± 0.055 | 0.955 ± 0.02 | 1.56 ± 1 | 1.03 ± 0.037 | 0.865 ± 0.01 | 0.909 ± 0.067 | 0.849 ± 0.067 | 0.86 ± 0.085
LNCAP PROSTATE | 0.864 ± 0.066 | 0.878 ± 0.1 | 0.7647 ± 0.0046 | 0.922 ± 0.16 | 0.898 ± 0.11 | 0.934 ± 0.11 | 0.933 ± 0.11 | 1.03 ± 0.026 | 1.01 ± 0.17 | 0.95 ± 0.15 | 1.01 ± 0.13 | 1.02 ± 0.21 | 1.14 ± 0.11 | 1.08 ± 0.19 | 1.13 ± 0.13 | 1.08 ± 0.12
MCF7 BREAST | 0.884 ± 0.024 | 0.868 ± 0.063 | 0.864 ± 0.03 | 0.877 ± 0.068 | 0.878 ± 0.04 | 0.861 ± 0.038 | 0.878 ± 0.042 | 0.908 ± 0.069 | 0.898 ± 0.029 | 0.916 ± 0.059 | 0.874 ± 0.032 | 0.892 ± 0.097 | 0.883 ± 0.032 | 0.966 ± 0.043 | 0.913 ± 0.041 | 0.904 ± 0.037
MDAMB134 BREAST | 1 ± 0.079 | 0.807 ± 0.069 | 0.863 ± 0.03 | 0.977 ± 0.23 | 0.872 ± 0.073 | 0.902 ± 0.069 | 0.829 ± 0.064 | 0.873 ± 0.05 | 0.848 ± 0.089 | 0.886 ± 0.14 | 0.878 ± 0.057 | 0.915 ± 0.062 | 0.687 ± 0.12 | 0.717 ± 0.093 | 0.625 ± 0.024 | 0.662 ± 0.11
MDAMB157 BREAST | 0.85 ± 0.13 | 0.935 ± 0.05 | 0.898 ± 0.031 | 0.993 ± 0.026 | 0.856 ± 0.03 | 0.68 ± 0.045 | 0.467 ± 0.033 | 0.515 ± 0.0087 | 0.901 ± 0.11 | 0.943 ± 0.098 | 1.02 ± 0.04 | 0.966 ± 0.06 | 1.02 ± 0.11 | 1.13 ± 0.12 | 1.01 ± 0.049 | 0.977 ± 0.061
MDAMB231 BREAST | 0.974 ± 0.03 | 0.975 ± 0.026 | 0.9813 ± 0.0094 | 1.01 ± 0.02 | 0.995 ± 0.026 | 1.01 ± 0.034 | 1.01 ± 0.035 | 0.983 ± 0.022 | 0.9193 ± 0.003 | 0.942 ± 0.018 | 0.95 ± 0.019 | 0.96 ± 0.02 | 0.884 ± 0.014 | 0.9527 ± 0.0036 | 0.85 ± 0.025 | 0.8868 ± 0.0044
MDAMB361 BREAST | 0.945 ± 0.025 | 0.917 ± 0.056 | 0.855 ± 0.092 | 0.839 ± 0.051 | 0.955 ± 0.097 | 0.846 ± 0.034 | 0.937 ± 0.065 | 0.859 ± 0.025 | 0.83 ± 0.021 | 0.798 ± 0.039 | 0.829 ± 0.043 | 0.784 ± 0.051 | 0.571 ± 0.019 | 0.612 ± 0.093 | 0.583 ± 0.049 | 0.598 ± 0.032
MDAMB436 BREAST | 0.974 ± 0.053 | 0.802 ± 0.074 | 0.912 ± 0.026 | 0.911 ± 0.041 | 0.943 ± 0.1 | 0.974 ± 0.033 | 0.911 ± 0.032 | 0.878 ± 0.032 | 0.851 ± 0.041 | 0.865 ± 0.0089 | 0.873 ± 0.027 | 0.852 ± 0.071 | 0.891 ± 0.04 | 0.915 ± 0.056 | 0.751 ± 0.013 | 0.78 ± 0.045
